The record followed here is patent US6642247B2 (priority 1998, dated 2003).

As usually defined, the melting point is the temperature of the solid-liquid transition. `O=C(O)/C=C/C(=O)O.O=C1CCN(c2ccccc2)C12CCN(C1CCCCCCC1)CC2` gave a melting point of 197 °C.
In turn, `O=C(O)/C=C/C(=O)O.O=C1CCN(c2ccccc2)C12CCN(C1C[C@H]3CCCC[C@H]3C1)CC2` (stereo partly shown) came in with a melting point of 225 °C.
Next, `CC(C)[C@H]1CC[C@@H](N2CCC3(CC2)C(O)CCN3c2ccccc2)CC1.Cl` (mixture of isomers): over 250 °C.
Next, `Cl.OC1CCN(c2ccccc2)C12CCN(C1CCC3CCCCC3C1)CC2` (stereo not shown): over 250 °C.
Next, `O=C(O)/C=C/C(=O)O.O=C1CCN(c2ccccc2)C12CCN([C@@H]1CC[C@H]3CCCc4cccc1c43)CC2` (racemic): 144 °C.
As for `COC1CCN(c2ccccc2)C12CCN([C@H]1CC[C@@H](C(C)C)CC1)CC2.Cl` (mixture of isomers), the melting point lay in the range of 214 to 215 °C.
With `COC1CCN(c2ccccc2)C12CCN(C1CCCCCCCCC1)CC2.Cl.Cl` (racemic) the figure was 170 °C (dec.); with `Cc1cccc2c1CC(N1CCC3(CC1)C(=O)CCN3c1ccccc1)C2.Cl` (racemic), over 250 °C; with `O=C(O)/C=C/C(=O)O.O=C1CCN(c2ccccc2)C12CCN(C1CCCCCCCC1)CC2`, 185 °C.
With `CC(C)[C@H]1CC[C@@H](N2CCC3(CC2)[C@@H](O)CCN3c2ccccc2)CC1.Cl` the figure was over 250 °C; with `CC(C)[C@H]1CC[C@@H](N2CCC3(CC2)[C@H](O)CCN3c2ccccc2)CC1.Cl`, over 250 °C; with `CC(C)[C@H]1CC[C@@H](N2CCC3(CC2)ON=C(c2ccccc2)N3c2ccccc2)CC1.Cl`, 131 °C.
Consider `Cl.Cl.OC1CCN(c2ccccc2)C12CCN(C1CCCCCCCCC1)CC2` (racemic), for which the melting point was 170 °C (dec.).
Next, `COC1CCN(c2ccccc2)C12CCN(C1CCCCCCCC1)CC2.O=C(O)/C=C/C(=O)O` (racemic): 196 °C (dec.); `CC(C)[C@H]1CC[C@H](N2CCC3(CC2)C(=O)CCN3c2ccccc2)CC1.Cl`: 237 to 238 °C; `CC(C)[C@H]1CC[C@H](N2CCC3(CC2)C(O)CCN3c2ccccc2)CC1.Cl` (mixture of isomers): over 250 °C.
`Cl.O=C1CCN(c2ccccc2)C12CCN([C@@H]1CC[C@@H]3CCCC[C@@H]3C1)CC2` (racemic): the melting point was 250 to 251 °C (dec.).
For `Cl.OC1CCN(c2ccccc2)C12CCN(C1Cc3ccccc3C1)CC2` (racemic), the melting point was over 250 °C.
With `Cl.Cl.OC1CCN(c2ccccc2)C12CCN(C1CCCCCCCC1)CC2` (racemic) the figure was 170 °C (dec.); with `Cl.Cl.OC1CCN(c2ccccc2)C12CCN(C1CCCCCCC1)CC2` (racemic), 173 °C (dec.); with `O=C(O)/C=C/C(=O)O.O=C1CCN(c2ccccc2)C12CCN(C1CCCCCCCCC1)CC2`, 177 °C.
With `Cl.O=C1CCN(c2ccccc2)C12CCN(C1Cc3ccccc3C1)CC2` the figure was over 250 °C.
